Measurements from article PMC5200956 (ChemMedChem, 2016).
Like-named read-outs stand apart in the source and are kept apart here.

What was measured:
T. gondii (tachyzoites) [1] = experiment: T. gondii tachyzoites growth assay; format: cell-based, Toxoplasma gondii; conditions: means ± SD, n = 3
T. cruzi (amastigotes) [2] = experiment: T. cruzi amastigote growth assay; format: cell-based, Trypanosoma cruzi; conditions: for EC50: read-out: T. cruzi growth EC50, intracellular amastigotes, means ± SD, n = 3; for antiparasitic activity against T. cruzi (in words): amastigotes
[3] = Cytotoxicity for Vero cells; format: cell-based; conditions: African green monkey
TgFPPS = TgFPPS enzyme inhibition; format: biochemical, Toxoplasma gondii; conditions: read-out: TgFPPS IC50; means ± SD, n = 3
HhFPPS = target: T1, HhFPPS (Homo sapiens, UniProt P14324); experiment: HhFPPS enzyme inhibition; format: biochemical; conditions: read-out: HhFPPS IC50; means ± SD, n = 3
T1 sequence (P14324 67-419 limits assumed): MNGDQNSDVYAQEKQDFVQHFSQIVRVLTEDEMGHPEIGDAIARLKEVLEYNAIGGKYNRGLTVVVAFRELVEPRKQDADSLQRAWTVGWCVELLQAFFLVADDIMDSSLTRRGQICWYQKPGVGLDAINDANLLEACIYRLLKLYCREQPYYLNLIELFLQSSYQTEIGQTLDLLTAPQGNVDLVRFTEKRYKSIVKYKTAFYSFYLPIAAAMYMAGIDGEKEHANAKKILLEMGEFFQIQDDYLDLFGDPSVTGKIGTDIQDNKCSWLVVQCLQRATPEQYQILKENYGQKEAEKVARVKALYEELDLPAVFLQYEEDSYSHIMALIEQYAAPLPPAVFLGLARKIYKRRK

Vero cells = experiment: Cytotoxicity for Vero cells; format: cell-based; conditions: read-out: Cytotoxicity EC50
TcFPPS = target: T2, TcFPPS (Trypanosoma cruzi, UniProt Q8WS26); experiment: TcFPPS enzyme inhibition; format: biochemical; conditions: read-out: TcFPPS IC50; means ± SD, n = 3
T2 sequence (Q8WS26 1-425): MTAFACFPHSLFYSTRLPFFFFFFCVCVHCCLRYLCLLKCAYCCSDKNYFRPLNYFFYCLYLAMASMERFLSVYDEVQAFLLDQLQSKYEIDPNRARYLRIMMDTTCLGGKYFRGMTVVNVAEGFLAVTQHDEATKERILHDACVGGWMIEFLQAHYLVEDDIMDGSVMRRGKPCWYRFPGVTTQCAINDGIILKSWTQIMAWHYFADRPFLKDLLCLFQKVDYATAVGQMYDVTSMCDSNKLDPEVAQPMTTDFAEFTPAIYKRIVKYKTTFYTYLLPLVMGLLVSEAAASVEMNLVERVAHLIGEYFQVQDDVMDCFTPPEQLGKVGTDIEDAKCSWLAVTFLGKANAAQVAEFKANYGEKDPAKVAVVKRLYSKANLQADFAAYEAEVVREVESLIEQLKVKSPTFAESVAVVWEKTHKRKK

[4] = test system: T. cruzi squalene synthase (TcSQS); conditions: cited from earlier work; for IC50: read-out: TcSQS IC50, enzymatic activity of TcSQS
T. gondii (tachyzoites) [5] = conditions: read-out: T. gondii growth EC50; cited from earlier work
T. cruzi (amastigotes) [6] = conditions: read-out: T. cruzi growth EC50; cited from earlier work
[7] = Toxoplasma gondii, read-out: T. gondii growth EC50, tachyzoites
[8] = read-out: T. gondii growth EC50, tachyzoites

In the case of N#CSCCOc1cccc(Oc2ccccc2F)c1 [Compound 20, 3-(2-Fluorophenoxy)phenoxyethyl Thiocyanate], the EC50 (T. gondii (tachyzoites) [1]; [7]) is reported as 3.1 µM, the EC50 (T. gondii (tachyzoites) [1]; [8]) is reported as 3.12 ± 0.37 µM and the EC50 (T. cruzi (amastigotes) [2]) is reported as 7.01 ± 0.51 µM. For the same compound, the EC50 [3] was over 60 µM.

Compound N#CSCCOc1cccc(Oc2cccc(F)c2)c1 [Compound 21, 3-(3-Fluorophenoxy)phenoxyethyl Thiocyanate] has an EC50 (T. gondii (tachyzoites) [1]; [7]) of 1.6 µM, an EC50 (T. gondii (tachyzoites) [1]; [8]) of 1.63 ± 0.36 µM and an EC50 (T. cruzi (amastigotes) [2]) of 5.38 ± 0.82 µM. For the same compound, the EC50 [3] was over 50 µM.

N#CSCCOc1cccc(Oc2ccc(F)cc2)c1 [Compound 22, 3-(4-Fluorophenoxy)phenoxyethyl Thiocyanate] gave an EC50 (T. gondii (tachyzoites) [1]; [7]) of 4.9 µM, an EC50 (T. gondii (tachyzoites) [1]; [8]) of 4.92 ± 1.94 µM and an EC50 (T. cruzi (amastigotes) [2]) of 5.69 ± 0.47 µM. The EC50 [3] was over 55 µM.

In the case of N#CSCCOc1ccc(Oc2ccccc2F)cc1 [Compound 27, 4-(2-Fluorophenoxy)phenoxyethyl Thiocyanate], the EC50 (T. gondii (tachyzoites) [1]; [7]) is reported as 4.5 µM, the EC50 (T. gondii (tachyzoites) [1]; [8]) is reported as 4.54 ± 0.57 µM and the “antiparasitic activity against T. cruzi (in words)” value (from here on “antiparasitic activity”) (T. cruzi (amastigotes) [2]) is reported as “devoid of antiparasitic activity”. The EC50 [3] was over 55 µM.

For N#CSCCOc1ccc(Oc2ccncc2)cc1 [Compound 31, 4-(4-pyridyl)oxyphenoxyethyl Thiocyanate], the EC50 (T. gondii (tachyzoites) [1]; [7]) was 7.9 µM, the “antiparasitic activity” value (T. cruzi (amastigotes) [2]) was “free of antiparasitic activity” and the EC50 [3] was over 200 µM.

O=P(O)(O)C(CNCCOc1ccc(Oc2ccccc2)cc1)P(=O)(O)O [Compound 43, 1-[(4-Phenoxyphenoxyethylamino)ethyl]-1,1-bisphosphonic Acid] showed an EC50 (T. gondii (tachyzoites) [1]; [8]) of 5.9 ± 0.07 µM, an IC50 (TgFPPS) of 0.094 ± 0.02 µM and an EC50 (T. cruzi (amastigotes) [2]) of over 10 µM. It also gave an IC50 (HhFPPS) of over 10 µM and an EC50 (Vero cells) of over 100 µM.

Compound O=P(O)(O)C(CSCCOc1ccc(Oc2ccccc2)cc1)P(=O)(O)O [Compound 48] has an EC50 (T. gondii (tachyzoites) [1]; [8]) of over 10 µM, an IC50 (TgFPPS) of 0.362 ± 0.002 µM and an EC50 (T. cruzi (amastigotes) [2]) of over 20 µM. It also gave an IC50 (TcFPPS) of 0.8 ± 0.12 µM, an IC50 (HhFPPS) of over 15 µM and an EC50 (Vero cells) of over 200 µM.

In the case of O=P(O)(O)C(CNCCOc1cccc(Oc2ccccc2)c1)P(=O)(O)O [Compound 53, 1-[(3-Phenoxyphenoxyethylamino)ethyl]-1,1-bisphosphonic Acid], the EC50 (T. gondii (tachyzoites) [1]; [8]) is reported as 2.4 ± 0.7 µM, the IC50 (TgFPPS) is reported as 0.04 ± 0.002 µM and the “antiparasitic activity” value (T. cruzi (amastigotes) [2]) is reported as “devoid of activity”. The EC50 (T. cruzi (amastigotes) [2]) was over 10 µM, the IC50 (TcFPPS) was over 10 µM and the IC50 (HhFPPS) was over 10 µM. For the same compound, the EC50 (Vero cells) was over 50 µM.

Compound O=P(O)(O)C(CSCCOc1cccc(Oc2ccccc2)c1)P(=O)(O)O [Compound 58, 2-[3-(Phenoxy)phenoxyethylthio]ethyl-1,1-bisphosphonic Acid] has an EC50 (T. gondii (tachyzoites) [1]; [8]) of 0.67 ± 0.23 µM, an EC50 (T. gondii (tachyzoites) [1]; read-out: T. gondii growth EC50, tachyzoites, listed as 2-[3-(phenoxy)phenoxyethylthio]ethyl-1,1-bisphosphonate) of 0.7 µM and an IC50 (TgFPPS) of 0.076 ± 0.019 µM. The “antiparasitic activity” value (T. cruzi (amastigotes) [2]) was “devoid of activity”, the EC50 (T. cruzi (amastigotes) [2]) was over 10 µM and the IC50 (HhFPPS) was over 10 µM. For the same compound, the EC50 (Vero cells) was over 100 µM.

O=P(O)(O)C(CNCCOc1ccccc1)P(=O)(O)O [Compound 63, 1-[(Phenoxyethylamino)ethyl]-1,1-bisphosphonic Acid] gave an EC50 (T. gondii (tachyzoites) [1]; [8]) of over 10 µM, an IC50 (TgFPPS) of 0.18 ± 0.015 µM and an EC50 (T. cruzi (amastigotes) [2]) of over 10 µM. It also gave an IC50 (TcFPPS) of 0.32 ± 0.04 µM and an IC50 (HhFPPS) of over 10 µM.

For N#CSCCOc1ccc2ccccc2c1 [Compound 68, 2-(Naphthalen-2-yloxy)ethyl Thiocyanate], the EC50 (T. gondii (tachyzoites) [1]; [7]) was 3.6 µM and the “antiparasitic activity” value (T. cruzi (amastigotes) [2]) was “vanishing inhibitory action”.

For N#CSCCOc1cccc2ccccc12 [Compound 73, 2-(Naphthalen-1-yloxy)ethyl Thiocyanate], the EC50 (T. gondii (tachyzoites) [1]; [7]) was 3.1 µM, the “antiparasitic activity” value (T. cruzi (amastigotes) [2]) was “vanishing inhibitory action” and the EC50 [3] was 7.5 µM.

For CO[C@@H]1CN(c2ccc(C#C[C@]3(O)CN4CCC3CC4)c(Cc3ccccc3)n2)C[C@@H]1O [Compound E5700], the “type of inhibition of TcSQS” value [4] is given as “mixed-type” and the IC50 [4] is given as 0.00084 µM.

For COCCCOc1ccc(C#C[C@@]2(O)CN3CCC2CC3)c(Cc2ccccc2)n1 [ER-119884], the “type of inhibition of TcSQS” value [4] is given as “non-competitive” and the IC50 [4] is given as 0.0035 µM.

For N#CSCCOc1ccc(Oc2ccccc2)cc1 [WC-9, 4-Phenoxyphenoxyethyl thiocyanate], the EC50 (T. gondii (tachyzoites) [5]) is listed as 4.8 ± 0.41 µM, the EC50 (T. cruzi (amastigotes) [6]) is listed as 5 ± 1.1 µM and the “type of inhibition of TcSQS” value [4] is listed as “non-competitive”.
